Measured values published in patent US12618847B2 (Purdue Research Foundation, priority 2020, dated 2026).
“Also recorded” adds a separate entry of the source. Where two headings read alike, the source gives them in different places. One block for each molecule: values may come before it. *1 amine or outer side, *2 acyl side, *3 side chain or, on linkers, in order; H or OH if unused. Where a SMILES comes first, the peptide text is derived from it. Where no end group is shown, it is not given here. [ ]: non-standard residue; d: D form. The star is where a group is joined. Phe(4-NO2) = N[C@@H](Cc1ccc([N+](=O)[O-])cc1)C(=O)O; Phe(4-Cl) = N[C@@H](Cc1ccc(Cl)cc1)C(=O)O; 2Thi = N[C@@H](Cc1cccs1)C(=O)O; AMC = Cc1cc(=O)oc2cc(N*)ccc12; Suc = O=C(CCC(=O)[*:2])[*:1]; Nva = CCC[C@H](N)C(=O)O; Cbz = O=C(OCc1ccccc1)*

Key:
20S CP [1] = target: T1, 20S CP (Homo sapiens, UniProt P20618+P28074); assay: LC/MS assay of peptide library as 20S CP substrates; assay type: biochemical; details: 12 μM peptide, 9 nM 20S CP, 37° C., one hour
Protocol: To evaluate this set of peptides as potential 20S CP substrates, we applied a similar LC/MS-based assay to that used to discover the immunoproteasome probe. Briefly, the peptides were dissolved in DMSO at a stock concentration of 600 μM. The peptides were then diluted in 50 mM tris buffer, pH 7.4, in a 96-well plate for a final assay concentration of 12 μM in two sets of triplicates. One set of triplicates served as a negative control, incubated in tris buffer alone. For analysis, this would correspond to the ionization intensity of completely intact samples, which can then be compared to the amount of intact peptide remaining in 20S CP-treated samples. To the other triplicate was added 20S CP to a final concentration of 9 nM. All samples were incubated at 37° C. for one hour before an equal volume of acetonitrile was added to halt degradation by denaturing the 20S CP. Samples were dried, resuspended in 50/50 water/acetonitrile with 0.1% formic acid and analyzed by LC/MS (example spectra can be found in Supporting Information Appendix B).
For each peptide, the mass of the full (uncleaved) structure was extracted (extracted ion chromatogram, EIC) from each sample and this peak was integrated to obtain the peak area. The peak areas for the negative control samples of individual structures were averaged and set to 1. Peak areas for 20S CP-treated samples were then scaled to the average for the untreated sample and the triplicates averaged to obtain a value for the fraction of full peptide remaining (FIG. 4). To confirm that the peptide was being cleaved at the desired position, the mass of the corresponding 4mer-peptide cleavage product was found in each 20S CP-treated sample with significant decrease in full peptide observed.

A549 cells = assay: Probe cleavage in live A549 cells with or without MG-132 pretreatment; assay type: cell-based; details: MG-132 10 μM pre-incubated one hour, each TAS probe at 10 μM
Protocol: We next sought to determine if the TAS probes would be suitable for cell-based assays. To accomplish this, A549 cells were plated at a density of 5,000 cells/well in a black 96 well plate with a black bottom. After allowing the cells to adhere to the plate, the samples were washed with PBS three times then dosed with 10 μM of each probe in modified KRBH buffer. The change in fluorescence was recorded on a microplate reader for 90 min. After allowing the signal to equilibrate for […], each sample was set to zero and the future time points were scaled accordingly. As was done with the biochemical data, a linear regression was fit to each set of data. From the slope, it is observed that the rate for TAS2 was the highest. To determine the in-cell selectivity, a set of samples pretreated with MG-132 (10 μM), a proteasome inhibitor, was included for each probe. These samples were pre-incubated with MG-132 in cell culture media for one hour before washing with PBS and dosing with each probe in modified KRBH buffer. […] To ensure this decrease was not a consequence of cell death, cells were treated in the same way and analyzed using Cell-Titer Glo.

MM.1R = assay: Cell viability by Cell-Titer Glo; assay type: cell-based; details: 48 hours
Protocol: (§1) We also sought to correlate this proteasome activity trend with susceptibility to a proteasome inhibitor by determining the IC50 values of MG-132 with these six cells. Cells were dosed for 48 hours with increase concentrations of MG-132 then analyzed using Cell-Titer Glo to determine cell viability. […] Considering this, we still believe comparing cell lines for proteasome activity based on fluorescence with TAS2 would still provide insight to the relative dependency of various cancer cell lines on proteasome activity.

[2] = tested on: A498, SK-MEL-2, MEL-92.1, SH-SY5Y and HEK293T cell lines; assay: Cell viability by Cell-Titer Glo; assay type: cell-based; details: remaining cell lines, 48 hours
Protocol: as §1

[3] = tested on: human purified 20S proteasome; assay: Detection of small molecule stimulators with TAS probes using purified 20S proteasome (FIG. 7B-7D); assay type: biochemical; details: detected with TAS1 and TAS3
Protocol: FIG. 7B-7D show the analysis of TAS probes (TAS-1-B, TAS-2-C, TAS-3-D) for their ability to detect different small molecule stimulators using human purified 20S proteasome.
All three probes were able to detect stimulation is determined by an increase in the % activity over 60 min as compared to the DMSO control. Both TAS1 and TAS3 can differentiate between weak (TRC-1 and TCM-1) and strong proteasome stimulators (MK-886).

proteasome = tested on: T2, proteasome; assay: Proteasome stimulation in cells monitored with TAS probes; assay type: cell-based
T2 construct: endogenous in cells; host or cells: A549 (inferred; the stimulator paragraph says only 'cells')
Excerpt: In addition to determining if our probes are capable of detecting a decrease in proteasome activity, we were also interested in monitoring molecules which have shown to increase proteasome activity, also known as proteasome stimulators. […] However, this method requires transfection of the MT-fusion protein into cells and analysis by Western blot. Given the promising results with MG-132, we expected our probes to be sensitive enough to detect proteasome stimulation in a similar manner. Using three molecules reported to have various degrees of stimulation, cells were dosed for one hour before washing and adding in each probe. The samples were then monitored for changes in fluorescence and analyzed in the same way as the MG-132 experiment.
Previously proteasome stimulators had been discovered using a biochemical assay that required purified proteasome. As with all enzyme purifications, the batch to batch activity can vary greatly, leading to inconsistent results. […]
Using three different stimulating small molecules previously validated using other methods, we found both TAS1 and TAS3 would be suitable to use in such an assay. […] An increase in proteasome activity can be detected after as little as 15 min of incubation time, which can help to increase throughput during a screening campaign. […]

[4] = Human serum stability of library peptides by LC/MS; assay type: in vitro ADME; details: 20S CP one hour vs 10% human serum 10 min
Excerpt: This is supported by when we first optimized conditions for treating the peptides with human serum using Tyr-containing peptide.
Specifically, these were the four Phe derivatives tested. […] Because we were interested in the effects of unnatural amino acids in increasing the specificity of our 20S CP recognition sequence, we moved forward with Phe(4-Cl) and Phe(4-NO2) as Tyr substitutes in our probe structure to create TAS2 and TAS3, respectively (FIG. 1B).

[5] = 10% v/v human serum in tris buffer; details: up to 60 min
20S CP [6] = assay: purified 20S CP; details: 37° C., up to two hours
20S CP [7] = details: cited from earlier work
20S CP [8] = target: T1, 20S CP; assay: Fluorescence hydrolysis of probes by purified 20S CP (plate reader); assay type: biochemical
Protocol: The peptide recognition sequence used was based on the commercially available 4-mer AMC probe (FIG. 1A), specifically Leu-Leu-Val-Tyr (SEQ ID NO: 1), to generate TAS1 (FIG. 1B). To determine if TAS1 had any enhanced sensitivity, the two probes were compared under the same conditions with purified 20S CP. Briefly, the probes were incubated in triplicate at 10 and 30 μM with 9 nM […] at 37° C. The change in fluorescence was monitored for two hours and the endpoint values were averaged and graphed for comparison (FIG. 1C). Because the two fluorophores have different excitation and emission wavelengths, the two experiments were performed separately but using the same conditions for the plate reader (i.e. gain, number of flashes, settling time, etc.). […] Since, unlike Suc-LLVY-AMC (SEQ ID NO: 1), TAS1 has the potential to have more than one cleavage site which could result in an increase in fluorescence (on either side of Rh110), we confirmed that the increase in signal is only from the recognition and cleavage of the peptide at the Tyr moiety by analyzing the 30 μM TAS1 samples by LC/MS (FIG. 2).
With these new peptide sequences in hand, we returned to incorporating the Rh110-peptoid moiety and to compare the cleavage of TAS1-3 with the 20S CP. We incubated all three probes at various concentrations with 9 nM 20S CP and monitored the change in fluorescence using a microplate reader. […] In order to compare the three probes, we fit a linear regression for the points from 10-60 min for 30 μM of each probe to obtain a rate for the change in fluorescence (Table 1). Of the three, TAS1 was hydrolyzed the quickest, although the slope for TAS2 was similar. […] To confirm that the change in fluorescence was due to amide bond cleavage at the expected site on the peptide, we analyzed the samples at a concentration of 30 μM by LC/MS (FIG. 3).

Peptide cleaved by 20S CP (20S CP [1]): ~50%
Molecule: N[C@@H](CCO)C(=O)O [Hse]

Molecule: CC(C)C[C@@H](C=O)NC(=O)[C@H](CC(C)C)NC(=O)[C@H](CC(C)C)NC(=O)OCc1ccccc1 [MG-132] (Cbz-Leu-Leu-Leu-aldehyde)
Decrease of slope of probe cleavage (A549 cells): ≥ 50%
IC50 (MM.1R): 264 nM
IC50 (cell viability) [2]: higher than that of MM.1R

Proteasome stimulator strength (% activity over 60 min vs DMSO) [3]: strong
Increase in proteasome activity vs DMSO (proteasome; probe TAS1, cells dosed one hour): greater than 3 fold
Increase in proteasome activity vs DMSO (proteasome; probe TAS3, cells dosed one hour): greater than 3 fold
Molecule: CC(C)c1ccc2c(c1)c(SC(C)(C)C)c(CC(C)(C)C(=O)O)n2Cc1ccc(Cl)cc1 [MK-886]

Cleavage of peptide by 20S CP (in words) (20S CP [1]): significantly cleaved
Molecule: CNCC(=O)O [Sar]
Cleavage by 20S CP compared to human serum [4]: no significant difference in cleavage; also recorded: near equal cleavage by both

Peptide cleaved by 20S CP (20S CP [1]): ~50%
Molecule: CCCC[C@H](N)C(=O)O [norleucine]

Cleavage of peptide by 20S CP (in words) (20S CP [1]): did not accept
Molecule: D-Phe: library peptide with D-Phe moiety in S1 position replacing Tyr, Ala-Ala dipeptide (LLV[dF]AA-NH2; N-terminus assumed; SMILES CC(C)C[C@H](NC(=O)[C@@H](N)CC(C)C)C(=O)N[C@H](C(=O)N[C@H](Cc1ccccc1)C(=O)N[C@@H](C)C(=O)N[C@@H](C)C(N)=O)C(C)C)

cleaved bond (20S CP [6]): Tyr-Rh110
Molecule: Leu-Leu-Val-Tyr
cleaved bond [5]: Leu-Leu, first_seen, 30 min; also recorded: Leu-Val, 60 min
not cleaved [5]: no productive cleavage for either 30 or 60 min
not cleaved (20S CP [6]): only new peaks formed were the expected cleavage products

Peptide cleaved by 20S CP (20S CP [1]): ~50%
Molecule: Nva: library peptide with norvaline in S1 position replacing Tyr, Ala-Ala dipeptide (LLV[Nva]AA-NH2; N-terminus assumed; SMILES CCC[C@H](NC(=O)[C@@H](NC(=O)[C@H](CC(C)C)NC(=O)[C@@H](N)CC(C)C)C(C)C)C(=O)N[C@@H](C)C(=O)N[C@@H](C)C(N)=O)

Molecule: Phe(4-Cl): library peptide with Phe(4-Cl) in S1 position replacing Tyr, Ala-Ala dipeptide (LLV[Phe(4-Cl)]AA-NH2; N-terminus assumed; SMILES CC(C)C[C@H](NC(=O)[C@@H](N)CC(C)C)C(=O)N[C@H](C(=O)N[C@@H](Cc1ccc(Cl)cc1)C(=O)N[C@@H](C)C(=O)N[C@@H](C)C(N)=O)C(C)C)
Cleavage by 20S CP compared to human serum [4]: greater than three-times favored cleavage by the 20S CP

Molecule: Phe(4-NO2): library peptide with Phe(4-NO2) in S1 position replacing Tyr, Ala-Ala dipeptide (LLV[Phe(4-NO2)]AA-NH2; N-terminus assumed; SMILES CC(C)C[C@H](NC(=O)[C@@H](N)CC(C)C)C(=O)N[C@H](C(=O)N[C@@H](Cc1ccc([N+](=O)[O-])cc1)C(=O)N[C@@H](C)C(=O)N[C@@H](C)C(N)=O)C(C)C)
Cleavage by 20S CP compared to human serum [4]: greater than three-times favored cleavage by the 20S CP

Molecule: Phe: library peptide with Phe in S1 position replacing Tyr, Ala-Ala dipeptide (LLVFAA)
Cleavage by 20S CP compared to human serum [4]: greater than three-times favored cleavage by the 20S CP

Molecule: Suc-LLVY-{AMC}
cleaved bond (20S CP [7]): Tyr-AMC

Rate of Hydrolysis (20S CP [8]; 30 μM probe, 9 nM purified 20S CP, linear regression 10-60 min): 28.1 ΔRFU/min
Background fluorescence level (20S CP [8]; purified 20S CP assay): considerably higher level of background
Molecule: TAS3: Rh110-based peptide/peptoid hybrid probe with Phe(4-NO2) as Tyr substitute (LLV[Phe(4-NO2)]; also: Rh110-based probe, place not given here, peptide/peptoid hybrid)
Cleavage products after incubation with 20S CP (LC/MS) (20S CP [8]; 30 μM probe, LC/MS): only produced the expected cleavage products

Cleavage of peptide by 20S CP (in words) (20S CP [1]): highest amount of cleavage
Molecule: Thi: library peptide with thienylalanine in S1 position replacing Tyr, Ala-Ala dipeptide (LLV[2Thi]AA-NH2; N-terminus assumed; SMILES CC(C)C[C@H](NC(=O)[C@@H](N)CC(C)C)C(=O)N[C@H](C(=O)N[C@@H](Cc1cccs1)C(=O)N[C@@H](C)C(=O)N[C@@H](C)C(N)=O)C(C)C)
Cleavage by 20S CP compared to human serum [4]: near equal cleavage by both
